The assay has as its target T1, PI3Kδ (Homo sapiens, UniProt O00329).
T1 construct: Full length p110 subunits of PI3k α, β and δ, N-terminally labeled with polyHis tag; polyHis (N); made in house; host or cells: Sf9 insect cells (baculovirus)
The assay is described as follows: PI3Kδ Alphascreen assay. The assay is classed as biochemical. (Alpha assays give light when donor and acceptor beads are brought close together.)

By Ki is commonly meant the equilibrium dissociation constant of an inhibitor or competing ligand from its target. Low values mean tighter binding, high ones weaker binding.

T1 sequence (O00329 whole entry): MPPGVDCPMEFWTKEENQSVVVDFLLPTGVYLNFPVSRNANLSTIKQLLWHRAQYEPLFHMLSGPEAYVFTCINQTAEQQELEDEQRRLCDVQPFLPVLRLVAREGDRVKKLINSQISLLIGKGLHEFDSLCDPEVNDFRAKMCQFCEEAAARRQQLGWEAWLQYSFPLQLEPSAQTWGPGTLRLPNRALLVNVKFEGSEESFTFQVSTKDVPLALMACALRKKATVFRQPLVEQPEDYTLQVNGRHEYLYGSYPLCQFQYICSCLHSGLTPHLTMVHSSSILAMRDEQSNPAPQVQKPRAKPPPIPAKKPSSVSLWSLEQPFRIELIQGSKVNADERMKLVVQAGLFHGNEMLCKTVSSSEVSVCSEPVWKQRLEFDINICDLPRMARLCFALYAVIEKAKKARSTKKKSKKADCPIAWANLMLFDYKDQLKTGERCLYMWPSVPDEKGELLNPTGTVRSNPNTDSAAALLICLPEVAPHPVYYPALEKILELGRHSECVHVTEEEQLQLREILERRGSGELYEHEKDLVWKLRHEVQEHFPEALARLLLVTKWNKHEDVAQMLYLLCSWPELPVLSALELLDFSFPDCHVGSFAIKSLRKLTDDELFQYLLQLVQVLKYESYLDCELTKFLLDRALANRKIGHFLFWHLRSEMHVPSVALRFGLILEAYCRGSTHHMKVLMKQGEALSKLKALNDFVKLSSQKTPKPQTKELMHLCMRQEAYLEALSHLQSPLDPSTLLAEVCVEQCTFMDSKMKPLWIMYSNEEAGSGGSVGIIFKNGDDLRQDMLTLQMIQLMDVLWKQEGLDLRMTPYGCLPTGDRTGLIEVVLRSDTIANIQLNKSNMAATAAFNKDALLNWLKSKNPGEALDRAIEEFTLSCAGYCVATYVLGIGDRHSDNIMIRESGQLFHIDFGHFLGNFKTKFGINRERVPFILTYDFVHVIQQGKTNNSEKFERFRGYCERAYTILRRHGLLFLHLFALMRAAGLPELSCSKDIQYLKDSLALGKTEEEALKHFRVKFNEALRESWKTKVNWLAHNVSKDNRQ
T1 sequence (P27986 whole entry partner): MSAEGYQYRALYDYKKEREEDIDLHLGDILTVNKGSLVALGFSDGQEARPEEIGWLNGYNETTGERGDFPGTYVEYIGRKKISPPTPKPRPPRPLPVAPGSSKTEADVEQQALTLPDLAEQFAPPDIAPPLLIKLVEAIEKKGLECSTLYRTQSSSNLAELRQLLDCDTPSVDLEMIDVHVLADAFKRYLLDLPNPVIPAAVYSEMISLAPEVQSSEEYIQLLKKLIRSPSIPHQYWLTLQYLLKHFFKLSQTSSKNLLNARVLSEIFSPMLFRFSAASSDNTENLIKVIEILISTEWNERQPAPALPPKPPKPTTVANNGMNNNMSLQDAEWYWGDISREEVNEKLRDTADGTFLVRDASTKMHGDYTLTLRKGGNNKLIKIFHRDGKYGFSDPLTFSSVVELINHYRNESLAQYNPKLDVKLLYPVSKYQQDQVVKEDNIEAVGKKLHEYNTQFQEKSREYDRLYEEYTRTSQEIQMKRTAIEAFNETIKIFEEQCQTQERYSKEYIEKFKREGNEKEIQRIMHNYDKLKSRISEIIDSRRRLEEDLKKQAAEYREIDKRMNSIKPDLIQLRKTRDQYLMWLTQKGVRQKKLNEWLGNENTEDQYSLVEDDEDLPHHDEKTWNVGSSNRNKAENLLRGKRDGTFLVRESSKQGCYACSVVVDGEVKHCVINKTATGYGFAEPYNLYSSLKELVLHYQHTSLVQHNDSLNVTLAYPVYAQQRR

Turning to `CCOc1ccc(-c2nc3cc(F)cc(F)c3c(Nc3cc(N4CCOCC4)cnc3N3CCOCC3)c2C)cn1` [N-(2,5-di-4-morpholinyl-3-pyridinyl)-2-(6-ethoxy-3-pyridinyl)-5,7-difluoro-3-methyl-4-quinolinamine], the Ki is 25.5 nM.
Consider `Cc1c(-c2ccccc2F)nc2cc(F)cc(F)c2c1Nc1cc(N2CCOCC2)cnc1N1CCOCC1` [N-(2,5-di-4-morpholinyl-3-pyridinyl)-5,7-difluoro-2-(2-fluorophenyl)-3-methyl-4-quinolinamine], for which affinity was put at a Ki of 6.22 nM.
As for `COc1cc(-c2nc3cc(F)cc(F)c3c(Nc3cc(N4CCOCC4)cnc3N3CCOCC3)c2C)ccn1` [N-(2,5-di-4-morpholinyl-3-pyridinyl)-5,7-difluoro-2-(2-methoxy-4-pyridinyl)-3-methyl-4-quinolinamine], the figure is 33.4 nM; as for `Cc1c(-c2ccc(F)nc2)nc2cc(F)cc(F)c2c1Nc1cc(N2CCOCC2)cnc1N1CCOCC1` [N-(2,5-di-4-morpholinyl-3-pyridinyl)-5,7-difluoro-2-(6-fluoro-3-pyridinyl)-3-methyl-4-quinolinamine], 18.5 nM.
Regarding `COc1ccc(-c2nc3cc(F)cc(F)c3c(Nc3cc(N4CCOCC4)cnc3N3CCOCC3)c2C)cn1` [N-(2,5-di-4-morpholinyl-3-pyridinyl)-5,7-difluoro-2-(6-methoxy-3-pyridinyl)-3-methyl-4-quinolinamine], the affinity, expressed as Ki, was 33.2 nM.
As for `Cc1c(-c2cccc3c2cnn3C)nc2cc(F)cc(F)c2c1Nc1cc(N2CCOCC2)cnc1N1CCOCC1` [N-(2,5-di-4-morpholinyl-3-pyridinyl)-5,7-difluoro-3-methyl-2-(1-methyl-1H-indazol-4-yl)-4-quinolinamine], the figure is 8.6 nM; as for `Cc1c(-c2cccc3c2ccn3C)nc2cc(F)cc(F)c2c1Nc1cc(N2CCOCC2)cnc1N1CCOCC1` [N-(2,5-di-4-morpholinyl-3-pyridinyl)-5,7-difluoro-3-methyl-2-(1-methyl-1H-indol-4-yl)-4-quinolinamine], 16.1 nM; as for `Cc1c(-c2ccnc(N3CCNCC3)c2)nc2cc(F)cc(F)c2c1Nc1cc(N2CCOCC2)cnc1N1CCOCC1` [N-(2,5-di-4-morpholinyl-3-pyridinyl)-5,7-difluoro-3-methyl-2-(2-(1-piperazinyl)-4-pyridinyl)-4-quinolinamine], 34.7 nM.
For the molecule `Cc1c(-c2ccnc(N3CCCC3)c2)nc2cc(F)cc(F)c2c1Nc1cc(N2CCOCC2)cnc1N1CCOCC1` [N-(2,5-di-4-morpholinyl-3-pyridinyl)-5,7-difluoro-3-methyl-2-(2-(1-pyrrolidinyl)-4-pyridinyl)-4-quinolinamine], the Ki worked out at 40.7 nM. This Ki and that of the molecule before are within 1.5-fold of each other.
For `Cc1c(-c2ccnc(N3CCN(C)CC3)c2)nc2cc(F)cc(F)c2c1Nc1cc(N2CCOCC2)cnc1N1CCOCC1` [N-(2,5-di-4-morpholinyl-3-pyridinyl)-5,7-difluoro-3-methyl-2-(2-(4-methyl-1-piperazinyl)-4-pyridinyl)-4-quinolinamine], the Ki amounted to 15 nM.
As for `Cc1c(-c2ccccc2[S@+](C)[O-])nc2cc(F)cc(F)c2c1Nc1cc(N2CCOCC2)cnc1N1CCOCC1` [N-(2,5-di-4-morpholinyl-3-pyridinyl)-5,7-difluoro-3-methyl-2-(2-((S)-methylsulfinyl)phenyl)-4-quinolinamine], the figure is 51 nM.
As for `Cc1ncccc1-c1nc2cc(F)cc(F)c2c(Nc2cc(N3CCOCC3)cnc2N2CCOCC2)c1C` [N-(2,5-di-4-morpholinyl-3-pyridinyl)-5,7-difluoro-3-methyl-2-(2-methyl-3-pyridinyl)-4-quinolinamine], affinity was put at a Ki of 1.71 nM.
`Cc1cc(C(F)(F)F)ccc1-c1nc2cc(F)cc(F)c2c(Nc2cc(N3CCOCC3)cnc2N2CCOCC2)c1C` [N-(2,5-di-4-morpholinyl-3-pyridinyl)-5,7-difluoro-3-methyl-2-(2-methyl-4-(trifluoromethyl)phenyl)-4-quinolinamine] registered a Ki of 248 nM.
As for `Cc1cc(-c2nc3cc(F)cc(F)c3c(Nc3cc(N4CCOCC4)cnc3N3CCOCC3)c2C)ccn1` [N-(2,5-di-4-morpholinyl-3-pyridinyl)-5,7-difluoro-3-methyl-2-(2-methyl-4-pyridinyl)-4-quinolinamine], the figure is 26.5 nM.
The result for `Cc1c(-c2cnccn2)nc2cc(F)cc(F)c2c1Nc1cc(N2CCOCC2)cnc1N1CCOCC1` [N-(2,5-di-4-morpholinyl-3-pyridinyl)-5,7-difluoro-3-methyl-2-(2-pyrazinyl)-4-quinolinamine] reads 7.95 nM; that for `Cc1c(-c2cccnc2)nc2cc(F)cc(F)c2c1Nc1cc(N2CCOCC2)cnc1N1CCOCC1` [N-(2,5-di-4-morpholinyl-3-pyridinyl)-5,7-difluoro-3-methyl-2-(3-pyridinyl)-4-quinolinamine], 8.43 nM; that for `Cc1c(N2CCN(C)CC2)nc2cc(F)cc(F)c2c1Nc1cc(N2CCOCC2)cnc1N1CCOCC1` [N-(2,5-di-4-morpholinyl-3-pyridinyl)-5,7-difluoro-3-methyl-2-(4-methyl-1-piperazinyl)-4-quinolinamine], 12 nM.
`Cc1ccnc(-c2nc3cc(F)cc(F)c3c(Nc3cc(N4CCOCC4)cnc3N3CCOCC3)c2C)c1` [N-(2,5-di-4-morpholinyl-3-pyridinyl)-5,7-difluoro-3-methyl-2-(4-methyl-2-pyridinyl)-4-quinolinamine] displayed an inhibition constant (Ki) of 237 nM.
`Cc1ccncc1-c1nc2cc(F)cc(F)c2c(Nc2cc(N3CCOCC3)cnc2N2CCOCC2)c1C` [N-(2,5-di-4-morpholinyl-3-pyridinyl)-5,7-difluoro-3-methyl-2-(4-methyl-3-pyridinyl)-4-quinolinamine]: the affinity corresponds to a Ki of 1.61 nM.
`Cc1c(-c2cc(-c3ccccc3)ccn2)nc2cc(F)cc(F)c2c1Nc1cc(N2CCOCC2)cnc1N1CCOCC1` [N-(2,5-di-4-morpholinyl-3-pyridinyl)-5,7-difluoro-3-methyl-2-(4-phenyl-2-pyridinyl)-4-quinolinamine] gave an inhibition constant (Ki) of 47.9 nM.
As for `CSc1cncc(-c2nc3cc(F)cc(F)c3c(Nc3cc(N4CCOCC4)cnc3N3CCOCC3)c2C)c1` [N-(2,5-di-4-morpholinyl-3-pyridinyl)-5,7-difluoro-3-methyl-2-(5-(methylsulfanyl)-3-pyridinyl)-4-quinolinamine], the figure is 11.3 nM; as for `Cc1c(-c2cncc(S(C)(=O)=O)c2)nc2cc(F)cc(F)c2c1Nc1cc(N2CCOCC2)cnc1N1CCOCC1` [N-(2,5-di-4-morpholinyl-3-pyridinyl)-5,7-difluoro-3-methyl-2-(5-(methylsulfonyl)-3-pyridinyl)-4-quinolinamine], 83.8 nM.
The molecule `Cc1ccc(S(C)(=O)=O)c(-c2nc3cc(F)cc(F)c3c(Nc3cc(N4CCOCC4)cnc3N3CCOCC3)c2C)c1` [N-(2,5-di-4-morpholinyl-3-pyridinyl)-5,7-difluoro-3-methyl-2-(5-methyl-2-(methylsulfonyl)phenyl)-4-quinolinamine] registered a Ki of 8.22 nM.
For the molecule `Cc1cncc(-c2nc3cc(F)cc(F)c3c(Nc3cc(N4CCOCC4)cnc3N3CCOCC3)c2C)c1` [N-(2,5-di-4-morpholinyl-3-pyridinyl)-5,7-difluoro-3-methyl-2-(5-methyl-3-pyridinyl)-4-quinolinamine], the Ki was 8.92 nM. This Ki and that of the molecule before are within 1.5-fold of each other.
`Cc1c(-c2ccc(N3CCNCC3)nc2)nc2cc(F)cc(F)c2c1Nc1cc(N2CCOCC2)cnc1N1CCOCC1` [N-(2,5-di-4-morpholinyl-3-pyridinyl)-5,7-difluoro-3-methyl-2-(6-(1-piperazinyl)-3-pyridinyl)-4-quinolinamine] yielded an inhibition constant Ki of 56.3 nM. Compared with the last molecule, the Ki is about 6.3-fold higher.
As for `Cc1c(-c2ccc(N3CCCCC3)nc2)nc2cc(F)cc(F)c2c1Nc1cc(N2CCOCC2)cnc1N1CCOCC1` [N-(2,5-di-4-morpholinyl-3-pyridinyl)-5,7-difluoro-3-methyl-2-(6-(1-piperidinyl)-3-pyridinyl)-4-quinolinamine], the figure is 44 nM; as for `Cc1c(-c2ccc(N3CCCC3)nc2)nc2cc(F)cc(F)c2c1Nc1cc(N2CCOCC2)cnc1N1CCOCC1` [N-(2,5-di-4-morpholinyl-3-pyridinyl)-5,7-difluoro-3-methyl-2-(6-(1-pyrrolidinyl)-3-pyridinyl)-4-quinolinamine], 46.8 nM; as for `Cc1c(-c2ccc(N3CCN(C)CC3)nc2)nc2cc(F)cc(F)c2c1Nc1cc(N2CCOCC2)cnc1N1CCOCC1` [N-(2,5-di-4-morpholinyl-3-pyridinyl)-5,7-difluoro-3-methyl-2-(6-(4-methyl-1-piperazinyl)-3-pyridinyl)-4-quinolinamine], 295 nM.
Consider `Cc1c(-c2ccc(N3CCC(C)CC3)nc2)nc2cc(F)cc(F)c2c1Nc1cc(N2CCOCC2)cnc1N1CCOCC1` [N-(2,5-di-4-morpholinyl-3-pyridinyl)-5,7-difluoro-3-methyl-2-(6-(4-methyl-1-piperidinyl)-3-pyridinyl)-4-quinolinamine], for which the affinity corresponds to a Ki of 134 nM.
The result for `Cc1c(-c2ccc(N3CCOCC3)nc2)nc2cc(F)cc(F)c2c1Nc1cc(N2CCOCC2)cnc1N1CCOCC1` [N-(2,5-di-4-morpholinyl-3-pyridinyl)-5,7-difluoro-3-methyl-2-(6-(4-morpholinyl)-3-pyridinyl)-4-quinolinamine] reads 67.5 nM.
As for `Cc1c(-c2ccc(C(F)(F)F)nc2)nc2cc(F)cc(F)c2c1Nc1cc(N2CCOCC2)cnc1N1CCOCC1` [N-(2,5-di-4-morpholinyl-3-pyridinyl)-5,7-difluoro-3-methyl-2-(6-(trifluoromethyl)-3-pyridinyl)-4-quinolinamine], the figure is 23.2 nM.
As for `Cc1ccc(-c2nc3cc(F)cc(F)c3c(Nc3cc(N4CCOCC4)cnc3N3CCOCC3)c2C)cn1` [N-(2,5-di-4-morpholinyl-3-pyridinyl)-5,7-difluoro-3-methyl-2-(6-methyl-3-pyridinyl)-4-quinolinamine], the figure is 18 nM; as for `Cc1c(-c2ccccn2)nc2c(F)cc(F)cc2c1Nc1cc(N2CCOCC2)cnc1N1CCOCC1` [N-(2,5-di-4-morpholinyl-3-pyridinyl)-6,8-difluoro-3-methyl-2-(2-pyridinyl)-4-quinolinamine], 345 nM; as for `Cc1c(-c2cc([N+](=O)[O-])ccc2F)nc2cc(F)ccc2c1Nc1cc(N2CCOCC2)cnc1N1CCOCC1` [N-(2,5-di-4-morpholinyl-3-pyridinyl)-7-fluoro-2-(2-fluoro-5-nitrophenyl)-3-methyl-4-quinolinamine], 11.2 nM.

The record behind these values is patent US8940724B2, “Quinoline derivitives and their uses” (Amgen Inc., priority 2009, dated 2015).
